Test system: Escherichia coli (ECO) isolates
Test: MIC of compounds alone and combined with antibacterials, broth microdilution (CLSI)
Type: cell-based
Method in brief: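 Antibacterial MICs in combination were determined at every compound concentration tested, alongside compound MICs alone. Bacteria grew in cation-adjusted Mueller-Hinton broth starting from 5.10^5 CFU/mL, incubated at 35° C for 16-20 h, and endpoints were the lowest concentrations with no visible growth.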

`CC1(C)S[C@@H]2[C@H](NC(=O)[C@H](N)c3ccc(O)cc3)C(=O)N2[C@H]1C(=O)O` [AMX, Amoxicillin] was tested, and the “MIC ATB in combination” value (ECO 131119, CLA @ 4 μg/mL) was >512 µg/mL, the “MIC ATB in combination” value (ECO 180070, AF2 @ 8 μg/mL) was <0.25 µg/mL and the “MIC ATB in combination” value (ECO 180070, CLA @ 4 μg/mL) was 16 µg/mL. The “MIC ATB in combination” value (ECO 190314, AF2 @ 8 μg/mL) was <0.25 µg/mL, the “MIC ATB in combination” value (ECO 190314, CLA @ 4 μg/mL) was 8 µg/mL and the “MIC ATB in combination” value (ECO 190317, AF2 @ 8 μg/mL) was <0.25 µg/mL. For the same molecule, the “MIC ATB in combination” value (ECO 190317, CLA @ 4 μg/mL) was 64 µg/mL, the “MIC ATB in combination” value (ECO 190457, AF2 @ 8 μg/mL) was <0.25 µg/mL and the “MIC ATB in combination” value (ECO 190549, AF2 @ 8 μg/mL) was <0.25 µg/mL. The “MIC ATB in combination” value (ECO 190549, CLA @ 4 μg/mL) was 8 µg/mL, the “MIC ATB in combination” value (ECO 200159, AF2 @ 8 μg/mL) was <0.25 µg/mL and the “MIC ATB in combination” value (ECO 200159, CLA @ 4 μg/mL) was 8 µg/mL. For the same molecule, the “MIC ATB in combination” value (ECO 200259, AF2 @ 8 μg/mL) was <0.25 µg/mL, the “MIC ATB in combination” value (ECO 200259, CLA @ 4 μg/mL) was 8 µg/mL and the “MIC ATB in combination” value (ECO 200344, AF2 @ 8 μg/mL) was <0.25 µg/mL. The “MIC ATB in combination” value (ECO 200344, CLA @ 4 μg/mL) was 16 µg/mL, the “MIC ATB in combination” value (ECO 260096, AF2 @ 8 μg/mL) was 0.5 µg/mL and the “MIC ATB in combination” value (ECO 260096, CLA @ 4 μg/mL) was 4 µg/mL. The “MIC ATB in combination” value (ECO 260304, AF2 @ 8 μg/mL) was <0.25 µg/mL, the “MIC ATB in combination” value (ECO 260304, CLA @ 4 μg/mL) was 4 µg/mL and the “MIC ATB in combination” value (ECO 260508, AF2 @ 8 μg/mL) was <0.25 µg/mL. The “MIC ATB in combination” value (ECO 260508, CLA @ 4 μg/mL) was 64 µg/mL, the “MIC ATB in combination” value (ECO RGN238, AF2 @ 8 μg/mL) was <0.25 µg/mL and the “MIC ATB in combination” value (ECO UFR15, AF2 @ 8 μg/mL) was <0.25 µg/mL. The “MIC ATB in combination” value (ECO UFR16, AF2 @ 8 μg/mL) was <0.25 µg/mL, the “MIC ATB in combination” value (ECO UFR18, AF2 @ 8 μg/mL) was <0.25 µg/mL and the “MIC ATB in combination” value (ECO UFR19, AF2 @ 8 μg/mL) was <0.25 µg/mL. The “MIC ATB in combination” value (ECO UFR32, AF2 @ 8 μg/mL) was <0.25 µg/mL, the “MIC ATB in combination” value (ECO UFR39, AF2 @ 8 μg/mL) was <0.25 µg/mL and the “MIC ATB in combination” value (ECO UFR41, AF2 @ 8 μg/mL) was <0.25 µg/mL. For the same molecule, the “MIC ATB in combination” value (ECO UFR45, AF2 @ 8 μg/mL) was <0.25 µg/mL, the “MIC ATB in combination” value (ECO UFR61O, AF2 @ 8 μg/mL) was 4 µg/mL and the “MIC ATB in combination” value (ECO UFR62, AF2 @ 8 μg/mL) was <0.25 µg/mL. For the same molecule, the “MIC ATB in combination” value (ECO UFR74, AF2 @ 8 μg/mL) was <0.25 µg/mL, the “MIC ATB in combination” value (ECO UFR86, AF2 @ 8 μg/mL) was 2 µg/mL and the “MIC ATB in combination” value (ECO UFR86, CLA @ 4 μg/mL) was 8 µg/mL. For the same molecule, the “MIC ATB in combination” value (ECO UFR209, CLA @ 4 μg/mL) was 32 µg/mL, the “MIC ATB in combination” value (ECO UFR210, CLA @ 4 μg/mL) was 8 µg/mL and the “MIC ATB in combination” value (ECO UFR211, CLA @ 4 μg/mL) was 8 µg/mL. For the same molecule, the MIC (strain ECO 4133, genotype TEM-30, OXA-1) was >256 µg/mL, the MIC (strain ECO 5302, genotype TEM-1, OXA-1) was >256 µg/mL and the MIC (strain ECO 131119, genotype TEM-1, OXA-48) was >1024 µg/mL. For the same molecule, the MIC (strain ECO 180070, genotype TEM-1, CTX-M-15) was >256 µg/mL, the MIC (strain ECO 190314, genotype CTX-M-1) was >256 µg/mL and the MIC (strain ECO 190317, genotype TEM-1, SHV-12, CTX-M-15, OXA-1) was >1024 µg/mL. The MIC (strain ECO 190457, genotype CTX-M-15, OXA-1) was >256 µg/mL, the MIC (strain ECO 190549, genotype CTX-M-1) was >256 µg/mL and the MIC (strain ECO 200159, genotype TEM-1, CTX-M-14) was >256 µg/mL. The MIC (strain ECO 200259, genotype CTX-M-14) was >256 µg/mL, the MIC (strain ECO 200344, genotype CTX-M-1) was >256 µg/mL and the MIC (strain ECO 260096, genotype CTX-M-132) was >256 µg/mL. For the same molecule, the MIC (strain ECO 260304, genotype CTX-M-15) was >256 µg/mL, the MIC (strain ECO 260508, genotype TEM-1, CTX-M-15, OXA-1) was >256 µg/mL and the MIC (strain ECO RGN238, genotype OXA-1) was >1024 µg/mL. The MIC (strain ECO UFR15, genotype TEM-1, OXA-48) was >256 µg/mL, the MIC (strain ECO UFR16, genotype TEM-1, CTX-M-15, OXA-1, OXA-48) was >256 µg/mL and the MIC (strain ECO UFR17, genotype TEM-1, CTX-M-15, CMY-2, OXA-1, OXA-181) was >256 µg/mL. The MIC (strain ECO UFR18, genotype CTX-M-15, OXA-204) was >256 µg/mL, the MIC (strain ECO UFR19, genotype CTX-M-15, CMY-2, OXA-1, OXA-204) was >256 µg/mL and the MIC (strain ECO UFR20, genotype SHV-1, CTX-M-15, OXA-1, OXA-232) was >256 µg/mL. For the same molecule, the MIC (strain ECO UFR32, genotype TEM-1, VEB-1, OXA-10) was >256 µg/mL, the MIC (strain ECO UFR39, genotype CTX-M-15, NDM-1) was >1024 µg/mL and the MIC (strain ECO UFR41, genotype TEM-1, CTX-M-15, CMY-2, OXA-1, NDM-4) was >256 µg/mL. The MIC (strain ECO UFR45, genotype TEM-1, CMY-4, OXA-1, OXA-48, VIM-1) was >256 µg/mL, the MIC (strain ECO UFR52, genotype TEM-1, SHV-12, IMP-8) was >256 µg/mL and the MIC (strain ECO UFR61O, genotype TEM-1, KPC-2) was >256 µg/mL. The MIC (strain ECO UFR62, genotype TEM-1, CTX-M-9, KPC-2) was >256 µg/mL, the MIC (strain ECO UFR74, genotype SHV-1, DHA-1) was >256 µg/mL and the MIC (strain ECO UFR86, genotype ompC-, ompF-) was 16 µg/mL. For the same molecule, the MIC (strain ECO UFR174, genotype TEM-1, KPC-2, OXA-1) was >128 µg/mL, the MIC (strain ECO UFR175, genotype TEM-1, KPC-2, OXA-9) was >128 µg/mL and the MIC (strain ECO UFR176, genotype KPC-3, OXA-9*) was >128 µg/mL. The MIC (strain ECO UFR177, genotype TEM-1, CTX-M-15, OXA-1, OXA-2, NDM-1, RmtC, antibiotic alone) was >128 µg/mL, the MIC (strain ECO UFR178, genotype TEM-1, CTX-M-15, OXA-9, NDM-1, antibiotic alone) was >128 µg/mL and the MIC (strain ECO UFR179, genotype TEM-1, SHV-12, CTX-M-15, NDM-1, antibiotic alone) was >128 µg/mL. The MIC (strain ECO UFR180, genotype TEM-1, CMY-30, OXA-1, NDM-1, antibiotic alone) was >128 µg/mL, the MIC (strain ECO UFR181, genotype TEM-1, CTX-M-15, NDM-5, antibiotic alone) was >128 µg/mL and the MIC (strain ECO UFR182, genotype CTX-M-15, OXA-1, NDM-6, antibiotic alone) was >128 µg/mL. For the same molecule, the MIC (strain ECO UFR183, genotype CTX-M-15, OXA-1, NDM-7, antibiotic alone) was >128 µg/mL, the MIC (strain ECO UFR184, genotype CTX-M-15, CMY-4, OXA-1, OXA-204) was >128 µg/mL and the MIC (strain ECO UFR185, genotype OXA-48) was >128 µg/mL. The MIC (strain ECO UFR186, genotype TEM-1, CTX-M-14, OXA-48) was >128 µg/mL, the MIC (strain ECO UFR187, genotype CTX-M-15, OXA-48) was >128 µg/mL and the MIC (strain ECO UFR189, genotype TEM-1, CTX-M-15, OXA-48) was >128 µg/mL. For the same molecule, the MIC (strain ECO UFR190, genotype CTX-M-24, OXA-48) was >128 µg/mL, the MIC (strain ECO UFR191, genotype TEM-1, CTX-M-24, OXA-48) was >128 µg/mL and the MIC (strain ECO UFR204, genotype TEM-1, CMY-4, OXA-48, VIM-1, antibiotic alone) was >128 µg/mL. For the same molecule, the MIC (strain ECO UFR205, genotype CTX-M-15, VIM-4, antibiotic alone) was >128 µg/mL, the MIC (strain ECO UFR206, genotype TEM-1, CTX-M-15, OXA-1, VIM-4, antibiotic alone) was >128 µg/mL and the MIC (strain ECO UFR207, genotype CTX-M-15) was >128 µg/mL. For the same molecule, the MIC (strain ECO UFR208, genotype SHV-12) was >128 µg/mL, the MIC (strain ECO UFR209, genotype TEM-1, CTX-M-15) was >128 µg/mL and the MIC (strain ECO UFR210, genotype SHV-12) was >128 µg/mL. For the same molecule, the MIC (strain ECO UFR211, genotype TEM-24) was >128 µg/mL, the MIC (strain ECO UFR212, genotype CMY-2) was >128 µg/mL and the MIC (strain ECO UFR218, genotype TEM-1, SHV-1, CTX-M-15) was >128 µg/mL. For the same molecule, the MIC (strain ECO UFR252GO, genotype VIM-2, antibiotic alone) was >128 µg/mL and the MIC (strain ECO UFR255, genotype NDM-1, antibiotic alone) was >128 µg/mL.

Source: patent publication US20200017495A1, “NOVEL HETEROCYCLIC COMPOUNDS AND THEIR USE IN PREVENTING OR TREATING BACTERIAL INFECTIONS” (priority 2017, published 2020)
